{"source": "patent US20250228239A1", "about": "“MOLECULES HAVING PESTICIDAL UTILITY, AND INTERMEDIATES, COMPOSITIONS, AND PROCESSES, RELATED THERETO” (priority 2024, published 2025)"}
{"tested_on": "Beet Armyworm (Spodoptera exigua, LAPHEG)", "assay": "Bioassays on Beet Armyworm (BAW), 128-well diet tray assay", "format": "in vivo", "settings": "Spodoptera exigua; Table ABC: Biological Results; species BAW; read-out: BAW", "procedure": "(§1) Certain molecules disclosed in this document were tested against BAW and CL using procedures described in the following examples. In the reporting of the results, the “BAW & CL Rating Table” was used (See Table Section).\nBioassays on BAW were conducted using a 128-well diet tray assay. One to five second instar BAW larvae were placed in each well (3 mL) of the diet tray that had been previously filled with 1 mL of artificial diet to which 50 μg/cm^2 of the test molecule (dissolved in 50 μL of 90:10 acetone-water mixture) had been applied (to each of eight wells) and then allowed to dry. Trays were covered with a clear self-adhesive cover, vented to allow gas exchange, and held at 25° C., 14:10 light-dark for five to seven days. Percent mortality was recorded for the larvae in each well; activity in the eight wells was then averaged. The results are indicated in the table entitled “Table ABC: Biological Results” (See Table Section).", "units": {"pest or weed control at 50 µg/cm2": "%"}}
{"molecule": "CC(C)(C)OC(=O)N(C(=O)OC(C)(C)C)c1c(F)ccc(NC(=O)c2cc(NC(=O)[C@H]3[C@H](c4ccc(F)c(Cl)c4)C3(Cl)Cl)cc(F)c2Cl)c1F", "note": "(relative stereo) [F1155, trans-tert-Butyl-N-tert-butoxycarbonyl-N-[3-[[2-chloro-5-[[2,2-dichloro-3-(3-chloro-4-fluorophenyl)cyclopropanecarbonyl]amino]-3-fluorobenzoyl]amino]-2,6-difluorophenyl]carbamate]", "pest or weed control at 50 µg/cm2": "50 to 100"}
{"molecule": "COc1c(Cl)cc(NC(=O)[C@H]2[C@H](c3ccc(F)c(Cl)c3)C2(Cl)Cl)cc1C(=O)Nc1ccc(F)c(N(C(=O)OC(C)(C)C)C(=O)OC(C)(C)C)c1F", "note": "(relative stereo) [F1237, trans-tert-Butyl-N-tert-butoxycarbonyl-N-[3-[[3-chloro-5-[[2,2-dichloro-3-(3-chloro-4-fluorophenyl)cyclopropanecarbonyl]amino]-2-methoxybenzoyl]amino]-2,6-difluorophenyl]carbamate]", "pest or weed control at 50 µg/cm2": "0 to 50"}
{"tested_on": "Cabbage Looper (Trichoplusia ni, TRIPNI)", "assay": "Bioassays on Cabbage Looper (CL), 128-well diet tray assay", "format": "in vivo", "settings": "Trichoplusia ni; Cabbage Looper, Table ABC / ABC-DP rating; read-out: CL rating", "procedure": "as §1\n(§2) Bioassays on CL were conducted using a 128-well diet tray assay. One to five second instar CL larvae were placed in each well (3 mL) of the diet tray that had been previously filled with 1 mL of artificial diet to which 50 μg/cm^2 of the test molecule (dissolved in 50 μL of 90:10 acetone-water mixture) had been applied (to each of eight wells) and then allowed to dry. Trays were covered with a clear self-adhesive cover, vented to allow gas exchange, and held at 25° C., 14:10 light-dark for five to seven days. Percent mortality was recorded for the larvae in each well; activity in the eight wells was then averaged. The results are indicated in the table entitled “Table ABC: Biological Results” (See Table Section).", "units": {"pest or weed control at 50 µg/cm2": "%"}}
{"molecule": "CCOC(=O)C(F)(F)CNC(=O)c1cc(NC(=O)[C@H]2[C@H](c3cc(Cl)cc(Cl)c3)C2(Cl)Cl)ccc1Cl", "note": "(relative stereo) [F2076, trans-Ethyl 3-(2-chloro-5-(2,2-dichloro-3-(3,5-dichlorophenyl)cyclopropane-1-carboxamido)benzamido)-2,2-difluoropropanoate]", "pest or weed control at 50 µg/cm2": "50 to 100"}
{"tested_on": "Cabbage Looper (Trichoplusia ni, TRIPNI)", "assay": "Bioassays on Cabbage Looper (CL), 128-well diet tray assay", "format": "in vivo", "settings": "Trichoplusia ni; Table ABC: Biological Results; species CL; read-out: CL", "procedure": "as §1, §2", "units": {"pest or weed control at 50 µg/cm2": "%"}}
{"molecule": "CC(C)(C)OC(=O)N(C(=O)OC(C)(C)C)c1c(F)ccc(NC(=O)c2c(Cl)ccc(NC(=O)[C@H]3[C@H](c4ccc(F)c(Cl)c4)C3(Cl)Cl)c2Cl)c1F", "note": "(relative stereo) [F1107, trans-tert-Butyl-N-tert-butoxycarbonyl-N-[3-[[2,6-dichloro-3-[[2,2-dichloro-3-(3-chloro-4-fluorophenyl)cyclopropanecarbonyl]amino]benzoyl]amino]-2,6-difluoro-phenyl]carbamate]", "pest or weed control at 50 µg/cm2": "0 to 50"}
{"molecule": "CC(=O)Oc1c(F)ccc(NC(=O)c2cc(NC(=O)[C@H]3[C@H](c4cc(Cl)cc(Cl)c4)C3(Cl)Cl)ccc2Cl)c1F", "note": "(relative stereo) [F1193, trans-3-(2-Chloro-5-(2,2-dichloro-3-(3,5-dichlorophenyl)cyclopropane-1-carboxamido)benzamido)-2,6-difluorophenyl acetate]", "pest or weed control at 50 µg/cm2": "50 to 100"}
{"molecule": "COc1c(F)cc(NC(=O)[C@H]2[C@H](c3ccc(F)c(Cl)c3)C2(Cl)Cl)cc1C(=O)Nc1ccccc1", "note": "(relative stereo) [F1213, trans-5-(2,2-Dichloro-3-(3-chloro-4-fluorophenyl)cyclopropane-1-carboxamido)-3-fluoro-2-methoxy-N-phenylbenzamide]", "pest or weed control at 50 µg/cm2": "50 to 100"}
{"molecule": "CC(C)(C)OC(=O)N(C(=O)OC(C)(C)C)c1c(F)ccc(NC(=O)c2cc(NC(=O)[C@H]3[C@H](c4ccc(F)c(Cl)c4)C3(Cl)Cl)cc(Cl)c2F)c1F", "note": "(relative stereo) [F1198, trans-tert-Butyl-N-tert-butoxycarbonyl-N-[3-[[3-chloro-5-[[2,2-dichloro-3-(3-chloro-4-fluorophenyl)cyclopropanecarbonyl]amino]-2-fluorobenzoyl]amino]-2,6-difluorophenyl]carbamate]", "pest or weed control at 50 µg/cm2": "0 to 50"}
{"molecule": "O=C(Nc1cc(Cl)c(O)c(Cl)c1)c1cc(NC(=O)[C@H]2[C@H](c3cc(Cl)cc(Cl)c3)C2(Cl)Cl)ccc1Cl", "note": "(relative stereo) [F1360, trans-2-Chloro-5-(2,2-dichloro-3-(3,5-dichlorophenyl)cyclopropane-1-carboxamido)-N-(3,5-dichloro-4-hydroxyphenyl)benzamide]", "pest or weed control at 50 µg/cm2": "50 to 100"}
{"molecule": "CC(=O)OCCN(C(=O)OC(C)(C)C)c1ccc(NC(=O)c2cc(NC(=O)[C@H]3[C@H](c4cc(Cl)cc(Cl)c4)C3(Cl)Cl)ccc2Cl)c(C)c1", "note": "(relative stereo) [F1129, trans-2-((tert-butoxycarbonyl)(4-(2-chloro-5-(2,2-dichloro-3-(3,5-dichlorophenyl)cyclopropane-1-carboxamido)benzamido)-3-methylphenyl)amino)ethyl acetate]", "pest or weed control at 50 µg/cm2": "50 to 100"}
